In experiment [1] the target is T1, human NMB receptor (BB1) (Homo sapiens, UniProt P28336).
T1 construct: expressed in transfected cells; membranes prepared from the cells
In words: BB1 binding assay ([125I][Tyr4]bombesin displacement, CHO-K1 membranes). The method, boiled down:
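Membranes from CHO-K1 cells stably expressing human NMB (BB1) or GRP (BB2) receptors, in 50 mM Tris-HCl pH 7.4 with BSA and protease inhibitors, incubated with [125I][Tyr4]bombesin (<0.1 nM) for 60 min (BB1) or 90 min (BB2). Nonspecific binding defined with 1 μM bombesin; filtration and gamma counting; IC50 converted to Ki by Cheng-Prusoff.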

For experiment [2], the target named is T2, human GRP receptor (BB2) (Homo sapiens, UniProt P30550).
T2 construct: expressed in transfected cells; membranes prepared from the cells
T2 sequence (P30550 whole entry): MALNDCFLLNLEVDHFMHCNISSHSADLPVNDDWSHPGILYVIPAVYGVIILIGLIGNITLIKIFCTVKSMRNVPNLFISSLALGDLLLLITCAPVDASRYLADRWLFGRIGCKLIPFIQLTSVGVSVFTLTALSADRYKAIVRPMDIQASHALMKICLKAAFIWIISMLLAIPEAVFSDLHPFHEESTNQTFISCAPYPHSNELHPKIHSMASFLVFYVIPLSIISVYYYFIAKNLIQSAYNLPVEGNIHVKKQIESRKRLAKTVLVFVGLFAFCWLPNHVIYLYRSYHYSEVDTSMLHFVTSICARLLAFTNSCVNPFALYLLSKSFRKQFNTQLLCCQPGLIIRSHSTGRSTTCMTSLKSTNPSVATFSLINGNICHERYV
In words: BB2 binding assay ([125I][Tyr4]bombesin displacement, CHO-K1 membranes). Here is the method:
In the following experiments, measurement of BB1 and BB2 binding was as follows. CHO-K1 cells stably expressing cloned human NMB (for (BB1 assay) and GRP receptors (for BB2 assay) were routinely grown in Ham's F12 culture medium supplemented with 10% foetal calf serum and 2 mM glutamine. For binding experiments, cells were harvested by trypsinization, and stored frozen at −70° C. in Ham's F12 culture medium containing 5% DMSO until required. On the day of use, cells were thawed rapidly, diluted with an excess of culture medium, and centrifuged for 5 minutes at 2000 g. Cells were resuspended in 50 mM Tris-HCl assay buffer (pH 7.4 at 21° C., containing 0.02% BSA, 40 μg/mL bacitracin, 2 μg/mL chymostatin, 4 μg/mL leupeptin, and 2 μM phosphoramidon), counted, and polytronned (setting 5, 10 sec) before centrifuging for 10 minutes at 28,000 g. The final pellet was resuspended in assay buffer to a final cell concentration of 1.5×10^5/mL. For binding assays, […] aliquots of membranes were incubated with [^125I][Tyr^4]bombesin (<0.1 nM) in the presence and absence of test compounds (final assay volume 250 μL) for 60 minutes and 90 minutes for NMB and GRP receptors, respectively. Nonspecific binding was defined by 1 μM bombesin. Assays were terminated by rapid filtration under vacuum onto Whatman GF/C filters presoaked in 0.2% PEI for >2 hours, and washed 50 mM Tris-HCl (pH 6.9 at 21° C.; 6×1 mL). Radioactivity bound was determined using a gamma counter.
All competition data was analysed using nonlinear regression utilizing iterative curve-plotting procedures in Prism® (GraphPad Software Inc., San Diego, USA). IC50 values were corrected to Ki values using the Cheng-Prusoff equation (Cheng Y., Prusoff W. H., Biochem. Pharmacol. 22: 3099-3108, 1973). obtained are listed in Table 1.

Where [3] appears, read: second 'TABLE 4', N-terminal urethane derivatives of Intermediate III-7.
The mark [4] stands for this setting: Table 3, N-acyl derivatives of Intermediate III-7.

SMILES strings stand for the structures. Like-named read-outs stand apart in the source and are kept apart here. A value given as a limit tells only on which side of the number the result lay.

T1 sequence (P28336 whole entry): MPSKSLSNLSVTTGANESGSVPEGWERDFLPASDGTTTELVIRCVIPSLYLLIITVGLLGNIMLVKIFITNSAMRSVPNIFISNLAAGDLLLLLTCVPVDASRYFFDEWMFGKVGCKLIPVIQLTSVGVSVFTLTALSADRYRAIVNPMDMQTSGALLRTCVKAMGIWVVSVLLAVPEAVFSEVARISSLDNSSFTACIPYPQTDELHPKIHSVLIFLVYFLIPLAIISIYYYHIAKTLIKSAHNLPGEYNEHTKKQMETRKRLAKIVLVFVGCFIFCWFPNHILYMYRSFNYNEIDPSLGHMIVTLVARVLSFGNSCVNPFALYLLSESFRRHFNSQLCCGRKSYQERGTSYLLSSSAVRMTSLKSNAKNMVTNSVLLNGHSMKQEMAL

One may read the IC50 as the concentration at which inhibition is half-maximal. As for `C[C@@](Cc1c[nH]c2ccccc12)(NC(=O)OCc1cccc([N+](=O)[O-])c1)C(=O)NCC1(c2ccccn2)CCCCC1` [Example 99, {(S)-2-(1H-Indol-3-yl)-1-methyl-1-[(1-pyridin-2-yl-cyclohexylmethyl)-carbamoyl]-ethyl}-carbamic acid 3-nitro-benzyl ester], the figures for the IC50 in experiment [1] (setting [3]) and in experiment [2] (setting [3]) were 17 nM and 612 nM, respectively.
`C[C@@](Cc1c[nH]c2ccccc12)(NC(=O)c1ncoc1-c1ccccc1)C(=O)NCC1(c2ccccn2)CCCCC1` [Example 80, 5-Phenyl-oxazole-4-carboxylic acid {(S)-2-(1H-indol-3-yl)-1-methyl-1-[(1-pyridin-2-yl-cyclohexylmethyl)-carbamoyl]-ethyl}-amide]: the IC50 was 2660 nM in experiment [1] (setting [4]) and above 10000 nM in experiment [2] (setting [4]).
With `COc1cccc(C(=O)N[C@@](C)(Cc2c[nH]c3ccccc23)C(=O)NCC2(c3ccccn3)CCCCC2)c1` [Example 40, N—{(S)-2-(1H-Indol-3-yl)-1-methyl-1-[(1-pyridin-2-yl-cyclohexylmethyl)-carbamoyl]-ethyl}-3-methoxy-benzamide], the IC50 in experiment [1] (setting [4]) is 2860 nM; in experiment [2] (setting [4]) it was above 10000 nM.
The corresponding values for `C[C@@](Cc1c[nH]c2ccccc12)(NC(=O)c1ccsc1)C(=O)NCC1(c2ccccn2)CCCCC1` [Example 65, Thiophene-3-carboxylic acid {(S)-2-(1H-indol-3-yl)-1-methyl-1-[(1-pyridin-2-yl-cyclohexylmethyl)-carbamoyl]-ethyl}-amide] are 2200 nM and above 10000 nM.
On to `COc1ccc(CC(=O)N[C@@](C)(Cc2c[nH]c3ccccc23)C(=O)NCC2(c3ccccn3)CCCCC2)cc1` [Example 82, (S)-3-(1H-Indol-3-yl)-2-[2-(4-methoxy-phenyl)-ethanoylamino]-2-methyl-N-(1-pyridin-2-yl-cyclohexylmethyl)-propionamide], for which the IC50 in experiment [1] (setting [4]) is 1690 nM; in experiment [2] (setting [4]), above 10000 nM.
Take `C[C@@](Cc1c[nH]c2ccccc12)(NS(=O)(=O)c1cccc2cccnc12)C(=O)NCC1(c2ccccn2)CCCCC1` [Example 120, (S)-3-(1H-indol-3-yl)-2-methyl-N-(1-pyridin-2-yl-cyclohexylmethyl)-2-(quinoline-8-sulfonylamino)-propionamide]: the IC50 is 108 nM in experiment [1] and above 10000 nM in experiment [2].
Consider `C[C@@](Cc1c[nH]c2ccccc12)(NC(=O)c1cccs1)C(=O)NCC1(c2ccccn2)CCCCC1` [Example 64, Thiophene-2-carboxylic acid {(S)-2-(1H-indol-3-yl)-1-methyl-1-[(1-pyridin-2-yl-cyclohexylmethyl)-carbamoyl]-ethyl}-amide], for which the IC50 in experiment [1] (setting [4]) is 1440 nM; in experiment [2] (setting [4]), above 10000 nM.
The like results for `Cc1cccc(C(=O)N[C@@](C)(Cc2c[nH]c3ccccc23)C(=O)NCC2(c3ccccn3)CCCCC2)n1` [Example 76, 6-Methyl-pyridine-2-carboxylic acid {(S)-2-(1H-indol-3-yl)-1-methyl-1-[(1-pyridin-2-yl-cyclohexylmethyl)-carbamoyl]-ethyl}-amide] were, in that order, 2820 nM and above 10000 nM.
Take `C[C@@](Cc1c[nH]c2ccccc12)(NC(=O)OCc1cccc(C#N)c1)C(=O)NCC1(c2ccccn2)CCCCC1` [Example 103, {(S)-2-(1H-Indol-3-yl)-1-methyl-1-[(1-pyridin-2-yl-cyclohexylmethyl)-carbamoyl]-ethyl}-carbamic acid 3-cyano-benzyl ester]: the IC50 in experiment [1] (setting [3]) was 85 nM; in experiment [2] (setting [3]) it was above 10000 nM.
Turning to `C[C@@](Cc1c[nH]c2ccccc12)(NC(=O)c1cc2ccccc2[nH]1)C(=O)NCC1(c2ccccn2)CCCCC1` [Example 61, 1H-Indole-2-carboxylic acid {(S)-2-(1H-indol-3-yl)-1-methyl-1-[(1-pyridin-2-yl-cyclohexylmethyl)-carbamoyl]-ethyl}-amide], the IC50 came to 289 nM in experiment [1] (setting [4]) and 527 nM in experiment [2] (setting [4]).
With `C[C@@](Cc1c[nH]c2ccccc12)(NS(=O)(=O)c1cccc2ccccc12)C(=O)NCC1(c2ccccn2)CCCCC1` [Example 115, (S)-3-(1H-indol-3-yl)-2-methyl-2-(naphthalene-1-sulfonylamino)-N-(1-pyridin-2-yl-cyclohexylmethyl)-propionamide], the IC50 in experiment [1] is 185 nM; in experiment [2], 1580 nM.
In the case of `CN(C)c1ccc(CC(=O)N[C@@](C)(Cc2c[nH]c3ccccc23)C(=O)NCC2(c3ccccn3)CCCCC2)cc1` [Example 83, (S)-2-[2-(4-Dimethylamino-phenyl)-ethanoylamino]-3-(1H-indol-3-yl)-2-methyl-N-(1-pyridin-2-yl-cyclohexylmethyl)-propionamide], the IC50 is 2710 nM in experiment [1] (setting [4]) and above 10000 nM in experiment [2] (setting [4]).
On to `C[C@@](Cc1c[nH]c2ccccc12)(NC(=O)c1ccccc1F)C(=O)NCC1(c2ccccn2)CCCCC1` [Example 49, 2-Fluoro-N—{(S)-2-(1H-indol-3-yl)-1-methyl-1-[(1-pyridin-2-yl-cyclohexylmethyl)-carbamoyl]-ethyl}-benzamide], for which the IC50 in experiment [1] (setting [4]) is 3950 nM; in experiment [2] (setting [4]) it was above 10000 nM.
As to `C[C@@](Cc1c[nH]c2ccccc12)(NC(=O)c1cccc2cccnc12)C(=O)NCC1(c2ccccn2)CCCCC1` [Example 79, Quinoline-8-carboxylic acid {(S)-2-(1H-indol-3-yl)-1-methyl-1-[(1-pyridin-2-yl-cyclohexylmethyl)-carbamoyl]-ethyl}-amide], the IC50 was 4480 nM in experiment [1] (setting [4]) and above 10000 nM in experiment [2] (setting [4]).
The corresponding values for `C[C@@](Cc1c[nH]c2ccccc12)(NC(=O)c1ccccc1[N+](=O)[O-])C(=O)NCC1(c2ccccn2)CCCCC1` [Example 45, N—{(S)-2-(1H-Indol-3-yl)-1-methyl-1-[(1-pyridin-2-yl-cyclohexylmethyl)-carbamoyl]-ethyl}-2-nitro-benzamide] are 4580 nM and above 10000 nM.
The corresponding values for `C[C@@](Cc1c[nH]c2ccccc12)(NC(=O)Cc1ccsc1)C(=O)NCC1(c2ccccn2)CCCCC1` [Example 56, (S)-3-(1H-Indol-3-yl)-2-methyl-N-(1-pyridin-2-yl-cyclohexylmethyl)-2-(2-thiophen-3-yl-ethanoylamino)-propionamide] are 1440 nM and above 10000 nM.
The like results for `C[C@@](Cc1c[nH]c2ccccc12)(NC(=O)Cc1cccc(O)c1)C(=O)NCC1(c2ccccn2)CCCCC1` [Example 53, (S)-2-[2-(3-Hydroxy-phenyl)-ethanoylamino]-3-(1H-indol-3-yl)-2-methyl-N-(1-pyridin-2-yl-cyclohexylmethyl)-propionamide] were, in that order, 1440 nM and above 10000 nM.
With `Cc1ccc(Oc2ccccc2S(=O)(=O)N[C@@](C)(Cc2c[nH]c3ccccc23)C(=O)NCC2(c3ccccn3)CCCCC2)cc1` [Example 153, (S)-3-(1H-indol-3-yl)-2-methyl-N-(1-pyridin-2-yl-cyclohexylmethyl)-2-(2-p-tolyloxy-benzenesulfonylamino)-propionamide], the IC50 in experiment [1] was 90 nM; in experiment [2], above 10000 nM.
`C[C@@](Cc1c[nH]c2ccccc12)(NS(=O)(=O)c1ccccc1Cl)C(=O)NCC1(c2ccccn2)CCCCC1` [Example 113, (S)-2-(2-chloro-benzenesulfonylamino)-3-(1H-indol-3-yl)-2-methyl-N-(1-pyridin-2-yl-cyclohexylmethyl)-propionamide]: the IC50 was 257 nM in experiment [1] and above 10000 nM in experiment [2].
The like results for `Cc1ccc(Oc2ccccc2)c(S(=O)(=O)N[C@@](C)(Cc2c[nH]c3ccccc23)C(=O)NCC2(c3ccccn3)CCCCC2)c1` [Example 152, (S)-3-(1H-indol-3-yl)-2-methyl-2-(5-methyl-2-phenoxy-benzenesulfonylamino)-N-(1-pyridin-2-yl-cyclohexylmethyl)-propionamide] were, in that order, 76 nM and above 10000 nM.
In the case of `C[C@@](Cc1c[nH]c2ccccc12)(NS(=O)(=O)c1ccccc1-c1ccccc1)C(=O)NCC1(c2ccccn2)CCCCC1` [Example 154, (S)-2-(biphenyl-2-sulfonylamino)-3-(1H-indol-3-yl)-2-methyl-N-(1-pyridin-2-yl-cyclohexylmethyl)-propionamide], the IC50 in experiment [1] was 166 nM; in experiment [2] it was above 10000 nM.
As for `C[C@@](Cc1c[nH]c2ccccc12)(NC(=O)OCc1ccc2ccccc2c1)C(=O)NCC1(c2ccccn2)CCCCC1` [Example 89, {(S)-2-(1H-Indol-3-yl)-1-methyl-1-[(1-pyridin-2-yl-cyclohexylmethyl)-carbamoyl]-ethyl}-carbamic acid naphthalen-2-ylmethyl ester], the IC50 in experiment [1] (setting [3]) was 1000 nM; in experiment [2] (setting [3]), above 10000 nM.

The values are drawn from patent US20020169101A1, “Treatment of sexual dysfunction” (priority 1999, published 2002).
